Laboratory results taken from paper PMC3626250, “Effects of Borneol on Pharmacokinetics and Tissue Distribution of Notoginsenoside R1 and Ginsenosides Rg1 and Re in Panax notoginseng in Rabbits” (Journal of Analytical Methods in Chemistry, 2013).
Marks after values point to notes of the source that are not given here.

Key:
[1] = Pharmacokinetics study in rabbits after oral Panax notoginseng extract with or without Borneol (plasma, SPE-HPLC-MS); type: in vivo, New Zealand rabbits
Method: Liquid chromatography was carried out on an Agilent 1100 HPLC system with an auto sampler, a quaternary pump and a vacuum degasser (Waldoboro, Frankfurt, Germany). Operations were controlled by Agilent Chemstation 4.2 software (Littleforts, Philadelphia, USA). Separations were achieved on a reversed-phase HPLC column (Zorbax SB-C18 150 × 2.1 mm, 5.0 μm particle size). A solution of acetonitrile and water (V : V, 20 : 80) with 0.1% (V : V) ammonium formate was used as the mobile phase. The flow rate was set at 0.3 mL·min^−1 and the column temperature was 25°C. Under these conditions, NGR1, GRg1, and GRe in plasma samples were separated efficiently without any interferences.
MS^n detection was performed on an Agilent SL trap MS system (Waldoboro, Frankfurt, Germany). The ion source-dependent (electrospray ionization) conditions were the same for all analyses with a spraying voltage of −4500 V in the negative ion mode. The pressure of the nebulizing gas (nitrogen) was set at 35 p.s.i. The flow rate of the drying gas (nitrogen) was set at 7.0 L·min^−1 with the temperature of 325°C. The collision gas (He) for the MS^n mode at trap was set at flow of 4 (instrument unit). The voltage of the capillary was set at 4000 V, and its end plate offset was −500 V. Scan range was from 500 to 1500 m/z.
(§1) Frozen plasma and tissue samples were thawed in a water bath at 37°C and were then vortexed followed by centrifuging at 5000 r·min^−1 for 5 min. An aliquot of 1.0 mL of the supernatant from each sample was loaded onto C18 Bond Elute Solid phase extraction (SPE) cartridges (1000 mg, 1 cc reservoir, Varian, Harbor City, CA, USA) pretreated with 2.0 mL hexane, isopropanol, methanol, and water, sequentially. The SPE cartridges were then washed with 1.0 mL water, 20% methanol/water solution, 40% methanol/water solution, and 60% methanol/water solution, sequentially. Finally, analytes were eluted twice with 1.0 mL of 70% methanol/water solution. The eluant was evaporated to dryness under nitrogen. The residues were then reconstituted in 1.0 mL mobile phase. An aliquot of 10 μL was injected into the LC-MS system.
Eighteen rabbits were randomly divided into three groups of 6 subjects and were orally given 3.0 mL·kg^−1 normal saline, 3.0 mL·kg^−1 Panax notoginseng extract, and 3.0 mL·kg^−1 Panax notoginseng extract combined with Borneol, respectively. Plasma samples were collected in heparinized tubes from the central ear artery at 0.0, 5.0, 10.0, 20.0, 30.0, 45.0, 60.0, 75.0, 90.0, 120.0, 180.0, 300.0 and 480.0 min after dose. After each sampling, the same volume of 0.9% saline solution was injected from the ear vein to compensate the loss of blood. The plasma obtained was frozen at −70°C for storage and was processed prior to analysis with the proposed method as described in Section 2.6.
Statistical analysis of the biological data was performed using the Student's t-test. The drug analysis system 2.0 (DAS 2.0, T.C.M., Shanghai, China) was used to calculate the pharmacokinetic parameters, such as the area under curve (AUC), the maximum plasma concentration (C max), the time needed to reach the maximum plasma concentration (t max) and the half-life of absorption, and distribution and elimination (t 1/2Ka, t 1/2α, t 1/2β).

[2] = Tissue distribution study in rabbits after oral Panax notoginseng extract with or without Borneol; type: in vivo, New Zealand rabbits
Method: as §1
One group of rabbits (n = 18) was orally administered a dose of 3.0 mL·kg^−1 Panax notoginseng extract, while another group of rabbits (n = 18) was orally given 3.0 mL·kg^−1 Panax notoginseng extract combined with Borneol. At 0.5, 1, and 3 h after administration, blood samples were collected from the central ear artery of six rabbits from each group, and the heart, liver, lung, kidney, and brain were immediately removed after animals were sacrificed by decapitation. An accurately weighed amount of tissue (1 g) was collected to be rinsed, dried, minced, and homogenized (400 r·min^−1) in normal saline (1.5 mL). All of the samples were stored at −70°C and were processed prior to analysis with the proposed method as described in Section 2.6.

[3] = oral 3.0 mL·kg^−1 Panax notoginseng extract
[4] = oral 3.0 mL·kg^−1 Panax notoginseng extract combined with Borneol
[5] = 0.5 h, oral Panax notoginseng with Borneol
[6] = 1.0 h, oral Panax notoginseng with Borneol
[7] = 3.0 h, oral Panax notoginseng with Borneol
[8] = Borneol combined with Panax notoginseng, peak levels at 1.0 h

Structure (SMILES): CC(C)=CCC[C@](C)(O[C@@H]1O[C@H](CO)[C@@H](O)[C@H](O)[C@H]1O)[C@H]1CC[C@]2(C)[C@@H]1[C@H](O)C[C@@H]1[C@@]3(C)CC[C@H](O)C(C)(C)[C@@H]3[C@@H](O[C@@H]3O[C@H](CO)[C@@H](O)[C@H](O)[C@H]3O[C@@H]3OC[C@@H](O)[C@H](O)[C@H]3O)C[C@]12C [NGR1, notoginsenoside R1]
- AUC0–t [1, 3]: 162.1 ± 42.7 mg/L/min
- AUC0–∞ [1, 3]: 164.0 ± 51.8 mg/L/min
- C max [1, 3]: 2120 ± 460 ng/mL
- CL/F [1, 3]: 488 ± 91 mL/min/kg
- K 10 [1, 3]: 0.018 ± 0.005 min⁻¹
- K 12 [1, 3]: 0.000 ± 0.000 min⁻¹
- K 21 [1, 3]: 0.014 ± 0.007 min⁻¹
- K a [1, 3]: 0.060 ± 0.004 min⁻¹
- T lag [1, 3]: 2.38 ± 0.49 min
- T max [1, 3]: 45.0 ± 9.8 min
- V/F [1, 3]: 27.3 ± 8.6 L/kg
- t 1/2Ka [1, 3]: 11.6 ± 2.4 min
- t 1/2α [1, 3]: 38.5 ± 4.5 min
- t 1/2β [1, 3]: 47.9 ± 8.1 min
- α [1, 3]: 0.018 ± 0.008 min⁻¹
- β [1, 3]: 0.014 ± 0.003 min⁻¹
- AUC0–t [1, 4]: 306.3 ± 82.9 mg/L/min
- AUC0–∞ [1, 4]: 395.3 ± 101.4 mg/L/min
- C max [1, 4]: 1620 ± 300 ng/mL
- CL/F [1, 4]: 506 ± 27 mL/min/kg
- K 10 [1, 4]: 0.009 ± 0.002* min^−1
- K 12 [1, 4]: 0.015 ± 0.005** min^−1
- K 21 [1, 4]: 0.011 ± 0.002 min⁻¹
- K a [1, 4]: 0.037 ± 0.005** min^−1
- T lag [1, 4]: 1.04 ± 0.21 min
- T max [1, 4]: 30.0 ± 8.0 min
- V/F [1, 4]: 58.8 ± 6.9 L/kg
- t 1/2Ka [1, 4]: 18.8 ± 3.1 min
- t 1/2α [1, 4]: 28.4 ± 3.2 min
- t 1/2β [1, 4]: 69.3 ± 5.2 min
- α [1, 4]: 0.024 ± 0.005 min⁻¹
- β [1, 4]: 0.010 ± 0.003* min^−1
- Concentration in brain ([2]; 0.5 h, oral Panax notoginseng): 0.65 ± 0.24 µg/g
- Concentration in heart ([2]; 0.5 h, oral Panax notoginseng): 3.90 ± 0.53 µg/g
- Concentration in kidney ([2]; 0.5 h, oral Panax notoginseng): 2.85 ± 0.45 µg/g
- Concentration in liver ([2]; 0.5 h, oral Panax notoginseng): 1.38 ± 0.54 µg/g
- Concentration in lung ([2]; 0.5 h, oral Panax notoginseng): 1.77 ± 0.46 µg/g
- Concentration in plasma ([2]; 0.5 h, oral Panax notoginseng): 1670 ± 50 ng/mL
- Concentration in brain [2, 5]: 4.02 ± 0.46 µg/g
- Concentration in heart [2, 5]: 4.68 ± 0.21 µg/g
- Concentration in kidney [2, 5]: 3.98 ± 0.12 µg/g
- Concentration in liver [2, 5]: 8.24 ± 0.42 µg/g
- Concentration in lung [2, 5]: 5.79 ± 0.29 µg/g
- Concentration in plasma [2, 5]: 1620 ± 70 ng/mL
- Concentration in brain ([2]; 1.0 h, oral Panax notoginseng): 0.81 ± 0.26 µg/g
- Concentration in heart ([2]; 1.0 h, oral Panax notoginseng): 4.26 ± 0.27 µg/g
- Concentration in kidney ([2]; 1.0 h, oral Panax notoginseng): 2.74 ± 0.33 µg/g
- Concentration in liver ([2]; 1.0 h, oral Panax notoginseng): 1.66 ± 0.28 µg/g
- Concentration in lung ([2]; 1.0 h, oral Panax notoginseng): 1.82 ± 0.20 µg/g
- Concentration in plasma ([2]; 1.0 h, oral Panax notoginseng): 1290 ± 200 ng/mL
- Concentration in brain [2, 6]: 5.58 ± 0.68 µg/g
- Concentration in heart [2, 6]: 5.55 ± 0.31 µg/g
- Concentration in kidney [2, 6]: 3.38 ± 0.34 µg/g
- Concentration in liver [2, 6]: 9.29 ± 0.72 µg/g
- Concentration in lung [2, 6]: 9.96 ± 0.66 µg/g
- Concentration in plasma [2, 6]: 1460 ± 50 ng/mL
- Concentration in brain ([2]; 3.0 h, oral Panax notoginseng): 0.48 ± 0.14 µg/g
- Concentration in heart ([2]; 3.0 h, oral Panax notoginseng): 3.31 ± 0.32 µg/g
- Concentration in kidney ([2]; 3.0 h, oral Panax notoginseng): 1.94 ± 0.24 µg/g
- Concentration in liver ([2]; 3.0 h, oral Panax notoginseng): 0.89 ± 0.12 µg/g
- Concentration in lung ([2]; 3.0 h, oral Panax notoginseng): 1.51 ± 0.16 µg/g
- Concentration in plasma ([2]; 3.0 h, oral Panax notoginseng): 160 ± 60 ng/mL
- Concentration in brain [2, 7]: 3.69 ± 0.84 µg/g
- Concentration in heart [2, 7]: 4.59 ± 0.52 µg/g
- Concentration in kidney [2, 7]: 2.27 ± 0.28 µg/g
- Concentration in liver [2, 7]: 6.87 ± 0.61 µg/g
- Concentration in lung [2, 7]: 4.56 ± 0.75 µg/g
- Concentration in plasma [2, 7]: 490 ± 20 ng/mL
- level in kidney, fold higher than the plasma concentrations ([2]; Borneol combined with Panax notoginseng, at 1.0 h): 2.3 fold
- level in brain, fold higher than the plasma concentrations [2, 8]: 3.82 fold
- level in liver, fold higher than the plasma concentrations [2, 8]: 6.36 fold
- level in lung, fold higher than the plasma concentrations [2, 8]: 6.82 fold
